Measured values: patent publication US12275685B2, “Oligo-benzamide analogs and their use in cancer treatment” (Board of Regents, The University of Texas System, priority 2018, dated 2025)
Entries after “also recorded” stand apart in the source; their conditions may differ.

Columns and labels:
[1] = tested on: pancreatic cancer MiaPaca cells; experiment: ER stress in pancreatic cancer cells by electron microscopy; type: cell-based
Description: The basal level of expression of endoplasmic reticulum stress and unfolded protein response correlates with TK41 activity (FIG. 28). Modulation of the level of these stress proteins affects the activity of TK41. Thus, the basal level of expression of endoplasmic reticulum stress and unfolded protein response proteins may serve as a biomarker to predict response to TK41. […] Without wishing to be bound by any particular theory, the mechanism of action of TK41 may operate comprise targeting either ER or TLX and inducing endoplasmic reticulum stress, subsequent apoptosis, and blocking autophagic fusion (FIG. 30).

TNBC PDX tumors = experiment: TNBC patient derived xenografts (PDX); type: in vivo, mice; details: 10 mg/kg/day oral
Description: FIGS. 7A-7C show effect of TK41 in triple negative breast cancer in patient derived xenografts. TNBC patient derived xenografts (n=6) were established in nude mice and treated with vehicle (circle markers) or 10 mg/kg/day/oral ERX-41 (i.e., TK41; square markers).
FIGS. 32A-C show established breast PDX tumors treated either with vehicle (circles) or ERX-41 (squares). Tumor volume is graphed (left), distribution of tumor weights at necropsy (middle panel). *p<0.05; […].
FIGS. 35A-P: ERX-41 is potent against TNBC in vivo. (FIG. 35A) Following establishment of subcutaneous MDA-MB-231 xenograft tumors (200 mm^3), 10 mg/kg single dose ERX-41 was administered either by oral or intraperitoneal route. The tumor was harvested 0, 0, 5, 1, 5, 3, 6 and 24 h after drug administration and the drug levels assayed by LC-MS/MS and graphed. (FIGS. 35B-E) Following establishment of MDA-MB-231 xenografts in mammary fat pad in vivo (100 mm^3 size), daily administration of 10 mg/kg ERX-41 or vehicle control (N=8 each group) was initiated. Tumor volumes were measured using digital calipers and graphed (FIG. 35B). Tumor weights (FIG. 35C), body weights (FIG. 35D) and extirpated tumors (FIG. 35E) at end of study are also shown. […] Tumor volumes were measured using digital calipers and graphed (FIG. 35F) along with tumor weights (FIG. 35G) and body weights (FIG. 35H). […]

Which “induction of endoplasmic reticulum stress in MiaPaca” value [1] does the source give for CC(C)COc1cc(C(=O)Nc2ccc(C(=O)N[C@H]3CC[C@H](C)CC3)cc2OCC(C)C)ccc1NC(=O)c1ccc([N+](=O)[O-])c(OCCO)c1 [TK41] here?
Its value is “Endoplasmic reticulum stress was also induced”.

What about the “growth of TNBC PDX tumors” value (TNBC PDX tumors) of the same compound?
Its value is “significantly decreased the growth”.

And the “growth of TNBC PDX tumors” value (TNBC PDX tumors; listed as ERX-41)?
The value was “significantly decreased the rates of growth; also recorded: has activity against TNBC PDX tumors”.
